Assay results as given in ChEMBL document CHEMBL1123652, “Optimization and in vivo evaluations of a series of small, potent, and specific renin inhibitors containing a novel Leu-Val replacement” (J Med Chem, 1987).
pIC50: −log10 of the molar value.

How the values were obtained:
Monkey [1] = test: Heart rate determined at dosage of 10 mg/kg in male cynomolgus monkey; type: functional, Cercopithecidae
[2] = Percent of radiolabel found in 24 hr urine samples after intraduodenal administration; type: ADME; conditions: other
Pepsin A (Sus scrofa) = Pepsin A (Sus scrofa) (UniProt P00791); test: Evaluated for the percentage of inhibition of porcine pepsin at E-5M concentration
Sequence of Pepsin A (Sus scrofa) (P00791 60-385 limits assumed): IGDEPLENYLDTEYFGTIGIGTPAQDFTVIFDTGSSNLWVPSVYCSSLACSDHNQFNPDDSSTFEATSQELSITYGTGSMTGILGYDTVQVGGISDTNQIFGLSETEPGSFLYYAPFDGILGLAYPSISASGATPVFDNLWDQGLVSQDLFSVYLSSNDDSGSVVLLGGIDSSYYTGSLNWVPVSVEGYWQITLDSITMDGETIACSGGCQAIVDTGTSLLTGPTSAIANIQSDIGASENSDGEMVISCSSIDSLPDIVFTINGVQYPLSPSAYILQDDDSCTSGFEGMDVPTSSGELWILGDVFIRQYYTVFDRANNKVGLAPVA

Monkey [3] = test: Mean blood pressure was measured in salt depleted male cynomolgus monkey at dose of 1.0 mg/kg intravenously; type: functional, Cercopithecidae; conditions: route intravenous
Monkey [4] = test: Inhibition of Plasma renin activity was observed in male cynomolgus monkey at dose of 10 mg/kg; type: functional, Cercopithecidae
Rattus norvegicus [5] = test: Percent radioactivity in excreta of rats 24 hr following intraduodenal administration of the compound in feces; type: ADME, organism-based; conditions: in vivo, other
Rattus norvegicus [6] = test: Percent radioactivity in excreta of rats 24 h following intravenous administration in feces; type: ADME, organism-based; conditions: in vivo
[7] = Percent of compound found in 24 hr urine samples after intraduodenal administration; type: ADME; conditions: read-out: Activity
Monkey [8] = test: Inhibition of Plasma renin activity was observed in male cynomolgus monkey at dose of 1.0 mg/kg; type: functional, Cercopithecidae
[9] = Percent of [3H]- histidine found in 24 hr urine samples after intravenous administration; type: ADME
[10] = Percent of [3H]- histidine found in 24 hr urine samples after intraduodenal administration; type: ADME; conditions: other
Monkey [11] = test: Heart rate determined at dosage of 1.0 mg/kg in male cynomolgus monkey; type: functional, Cercopithecidae
[12] = Percent of compound found in 24 hr urine samples after, intravenous administration; type: ADME; conditions: read-out: Activity
[13] = Percent of radiolabel found in 24 hr urine samples after intravenous administration; type: ADME
Rattus norvegicus [14] = test: Percent radioactivity in excreta of rats 24 hr following intravenous administration in urine; type: ADME, organism-based; conditions: in vivo
Renin = molecular target: T1, Renin (Homo sapiens, UniProt P00797); test: Evaluated in vitro for inhibitory potency against renin.
T1 sequence (P00797 whole entry): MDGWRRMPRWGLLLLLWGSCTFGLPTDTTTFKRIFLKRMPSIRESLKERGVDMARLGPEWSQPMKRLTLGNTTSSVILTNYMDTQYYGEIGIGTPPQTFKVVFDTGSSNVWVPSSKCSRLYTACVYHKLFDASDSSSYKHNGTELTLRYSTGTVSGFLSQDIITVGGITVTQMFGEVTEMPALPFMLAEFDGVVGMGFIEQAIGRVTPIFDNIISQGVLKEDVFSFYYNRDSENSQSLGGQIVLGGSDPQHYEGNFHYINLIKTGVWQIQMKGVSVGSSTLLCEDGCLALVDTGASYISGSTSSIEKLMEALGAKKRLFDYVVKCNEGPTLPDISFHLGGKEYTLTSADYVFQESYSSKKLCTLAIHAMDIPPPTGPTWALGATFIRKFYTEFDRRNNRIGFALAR

Rattus norvegicus [15] = test: Percent radioactivity in excreta of rats 24 hr following intraduodenal administration of the compound in urine; type: ADME, organism-based; conditions: in vivo, other
Monkey [16] = test: Mean blood pressure was measured in salt depleted male cynomolgus monkey at dose of 10 mg/kg intravenously; type: functional, Cercopithecidae; conditions: route intravenous
Cathepsin D (Bos taurus) = molecular target: T2, Cathepsin D (Bos taurus) (UniProt P80209); test: Evaluated for the percentage of inhibition of bovine cathepsin D at E-5M concentration
T2 sequence (whole entry): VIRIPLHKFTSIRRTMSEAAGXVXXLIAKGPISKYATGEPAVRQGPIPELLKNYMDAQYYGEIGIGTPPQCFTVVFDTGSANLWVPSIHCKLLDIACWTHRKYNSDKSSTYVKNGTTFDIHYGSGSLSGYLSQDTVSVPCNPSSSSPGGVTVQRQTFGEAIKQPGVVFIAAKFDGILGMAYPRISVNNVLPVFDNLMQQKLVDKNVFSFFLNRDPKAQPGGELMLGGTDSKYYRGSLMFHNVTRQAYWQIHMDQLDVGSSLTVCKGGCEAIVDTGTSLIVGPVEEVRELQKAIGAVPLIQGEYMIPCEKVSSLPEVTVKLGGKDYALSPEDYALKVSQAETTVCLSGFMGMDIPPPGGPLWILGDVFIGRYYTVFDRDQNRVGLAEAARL

- Activity [2]: 1%
- inhibition (Pepsin A (Sus scrofa)): 0%
- Activity (Rattus norvegicus [5]): 26.6%
- Activity (Rattus norvegicus [6]): 34.5%
- dose excreted at 24 h [7]: 30%
- Activity [9]: 30%
- Activity [10]: 70%
- dose excreted at 24 h [12]: 70%
- Activity [13]: 5%
- Activity (Rattus norvegicus [14]): 5%
- pIC50 (Renin): 8.60
- Activity (Rattus norvegicus [15]): 0.9%
- inhibition (Cathepsin D (Bos taurus)): 0%
SMILES: CC(C)(C)OC(=O)N[C@@H](Cc1ccccc1)C(=O)N[C@@H](Cc1c[nH]cn1)C(=O)N[C@@H](CC1CCCCC1)[C@@H](O)CS(=O)(=O)C1CCCCC1
- Heart rate (Monkey [1]): 197 beats min-1
- Mean blood pressure (Monkey [3]): 68 mmHg
- Activity (Monkey [4]): 107.7 ng/mL/h
- Activity (Monkey [8]): 35.3 ng/mL/h
- Heart rate (Monkey [11]): 140 beats min-1
- Mean blood pressure (Monkey [16]): 73 mmHg
